Tested on: volar forearm of panellists with dry skin
Assay: Skin Moisturization (Hydration), Corneometer CM 825
Assay type: in vivo
Settings: 15% active, baseline 46.75
Procedure: Skin Moisturization (Hydration). Aqueous solutions (along with formulated lotions) were applied to the volar forearm of panellists with dry skin. Solutions tested contained between 2.5 and 15% active levels of Hydroxyalkylurea and various moisturizing agents. The various individual moisturizing agents were also used in combination with Hydroxyalkylurea and the relative moisture contents in the skin were compared. Moisture levels were measured using a Corneometer® CM 825 (available from CK Industries) prior to and at various time intervals after application of forty microliters of each sample (Temperature ˜21° C., Relative Humidity ˜35%).

Which “Relative Skin Moisture Content” value (5 min after application) does the source give for `NC(=O)NCCO` [HAU, N-2-hydroxyethylurea] here?
The value was 56.56.

And the “Relative Skin Moisture Content” value (30 min after application)?
Its value is 60.00.

And the “Relative Skin Moisture Content” value (1 hr after application)?
Its value is 62.95.

What about the “Relative Skin Moisture Content” value (2 hr after application) of the same compound?
Its value is 62.00.
